Laboratory results as given in paper PMC3713097 (Chemical research in toxicology, 2013).
Like-named read-outs stand apart in the source and are kept apart here.

What was measured:
P450 2A13 = biological target: T1, P450 2A13 (Homo sapiens, UniProt Q16696); test: Spectral binding titration with purified P450 2A13
T1 sequence (Q16696 with tags, fused parts or gaps limits assumed): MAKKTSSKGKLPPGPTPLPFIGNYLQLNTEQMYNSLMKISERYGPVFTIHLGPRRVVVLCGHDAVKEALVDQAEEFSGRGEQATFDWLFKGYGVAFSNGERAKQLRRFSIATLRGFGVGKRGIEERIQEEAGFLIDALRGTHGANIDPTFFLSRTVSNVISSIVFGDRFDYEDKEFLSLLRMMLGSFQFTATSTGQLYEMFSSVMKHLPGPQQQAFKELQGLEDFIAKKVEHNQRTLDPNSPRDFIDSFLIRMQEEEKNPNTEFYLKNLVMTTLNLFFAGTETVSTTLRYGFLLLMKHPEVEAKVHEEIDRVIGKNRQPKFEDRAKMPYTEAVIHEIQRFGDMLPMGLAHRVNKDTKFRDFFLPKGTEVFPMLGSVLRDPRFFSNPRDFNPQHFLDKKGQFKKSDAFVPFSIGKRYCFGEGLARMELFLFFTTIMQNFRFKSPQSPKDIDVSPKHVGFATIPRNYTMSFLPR

P450 2A6 [1] = biological target: T2, P450 2A6 (Homo sapiens, UniProt P11509); test: Spectral binding titration with purified P450 2A6
T2 sequence (P11509 1-494): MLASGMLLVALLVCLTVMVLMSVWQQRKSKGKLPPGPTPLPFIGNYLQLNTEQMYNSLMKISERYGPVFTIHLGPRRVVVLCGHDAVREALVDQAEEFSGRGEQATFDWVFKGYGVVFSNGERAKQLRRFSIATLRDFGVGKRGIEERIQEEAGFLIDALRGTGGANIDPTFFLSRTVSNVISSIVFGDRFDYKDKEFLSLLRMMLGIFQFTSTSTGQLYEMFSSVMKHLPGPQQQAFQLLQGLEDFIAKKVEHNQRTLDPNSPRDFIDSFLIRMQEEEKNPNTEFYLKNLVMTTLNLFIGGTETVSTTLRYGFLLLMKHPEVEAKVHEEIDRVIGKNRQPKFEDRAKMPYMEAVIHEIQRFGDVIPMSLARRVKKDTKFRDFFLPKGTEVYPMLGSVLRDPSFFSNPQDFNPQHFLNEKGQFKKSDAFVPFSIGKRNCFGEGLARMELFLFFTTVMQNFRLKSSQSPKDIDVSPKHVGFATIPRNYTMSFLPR

P450 1B1 [2] = biological target: T3, P450 1B1 (Homo sapiens, UniProt Q16678, L432V); test: Spectral binding titration with purified P450 1B1
T3 sequence (Q16678 1-543 L432V): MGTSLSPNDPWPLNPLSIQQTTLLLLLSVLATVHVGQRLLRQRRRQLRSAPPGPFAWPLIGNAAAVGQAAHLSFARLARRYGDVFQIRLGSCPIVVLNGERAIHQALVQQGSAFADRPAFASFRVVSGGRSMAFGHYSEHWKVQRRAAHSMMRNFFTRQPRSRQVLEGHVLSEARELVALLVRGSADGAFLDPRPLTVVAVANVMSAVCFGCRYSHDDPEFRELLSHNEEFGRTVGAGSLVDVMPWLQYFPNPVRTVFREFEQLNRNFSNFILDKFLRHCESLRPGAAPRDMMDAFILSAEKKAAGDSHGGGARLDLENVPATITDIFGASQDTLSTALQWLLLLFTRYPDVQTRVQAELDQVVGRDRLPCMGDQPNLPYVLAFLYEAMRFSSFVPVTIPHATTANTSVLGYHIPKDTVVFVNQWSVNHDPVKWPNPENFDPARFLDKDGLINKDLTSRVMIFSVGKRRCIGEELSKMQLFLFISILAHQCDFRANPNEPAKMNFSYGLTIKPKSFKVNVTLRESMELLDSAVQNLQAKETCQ

P450 2A6 [3] = biological target: T2, P450 2A6; conditions: 10 nM P450, 2.5 µM procarcinogen, means ± range of duplicate experiments
P450 1B1 [4] = biological target: T3, P450 1B1; conditions: 10 nM P450, 2.5 µM procarcinogen, means ± range of duplicate experiments
human P450 2A13 = biological target: T4, human P450 2A13 (Homo sapiens, UniProt Q16696); conditions: 10 nM P450, 2.5 µM procarcinogen, means ± range of duplicate experiments
T4 sequence (Q16696 31-494 limits assumed): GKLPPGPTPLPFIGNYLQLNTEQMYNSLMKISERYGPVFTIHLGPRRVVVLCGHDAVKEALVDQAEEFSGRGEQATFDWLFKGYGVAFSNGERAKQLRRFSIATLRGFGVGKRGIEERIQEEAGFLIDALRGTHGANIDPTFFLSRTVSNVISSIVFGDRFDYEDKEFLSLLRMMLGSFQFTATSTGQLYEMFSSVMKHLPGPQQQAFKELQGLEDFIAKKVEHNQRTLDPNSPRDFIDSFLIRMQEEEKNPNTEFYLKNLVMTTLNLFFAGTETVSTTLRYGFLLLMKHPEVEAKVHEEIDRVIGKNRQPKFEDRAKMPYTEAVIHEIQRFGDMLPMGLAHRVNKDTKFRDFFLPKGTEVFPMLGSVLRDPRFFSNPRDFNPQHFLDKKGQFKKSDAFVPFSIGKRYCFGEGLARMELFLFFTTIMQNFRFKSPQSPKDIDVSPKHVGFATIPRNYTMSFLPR

[5] = P450 2A13, Type I spectra, ± SE
[6] = P450 1B1, Reverse Type I spectra
[7] = P450 1B1, Reverse Type I spectra, ± SE

| Compound | Kd (P450 2A13) | Kd (P450 2A6 [1]) | ΔAmax/ Ks (P450 1B1 [2]; [6]) | ΔAmax (P450 1B1 [2]; [7]) | activation of procarcinogens umu gene expression (P450 2A6 [3]) | activation of procarcinogens umu gene expression (P450 1B1 [4]) | activation of procarcinogens umu gene expression (human P450 2A13) | Kd (P450 1B1 [2]) | other results |
| --- | --- | --- | --- | --- | --- | --- | --- | --- | --- |
| O=[N+]([O-])c1ccc2ccc3cccc4ccc1c2c34 [1-nitropyrene] | 0.23 ± 0.08 µM | > 20 µM | 0.026 | 0.037 ± 0.001 | <10 units/min/nmol P450 | <10 units/min/nmol P450 | <10 units/min/nmol P450 | – | ΔAmax/ Ks (P450 2A13; P450 2A13, Type I spectra): 0.24; ΔAmax (P450 2A13; [5]): 0.055 ± 0.004; Kd (P450 1B1 [2]; human, pH 7.4): 1.4 ± 0.001 µM |
| Nc1ccc2cc3ccccc3cc2c1 [2-AA, 2-aminoanthracene] | > 20 µM | > 20 µM | 0.0026 | 0.085 ± 0.076 | 1200 ± 89 units/min/nmol P450 | 1900 ± 210 units/min/nmol P450 | 560 ± 40 units/min/nmol P450 | 33 ± 36 µM | – |
| CC(=O)Nc1ccc2c(c1)Cc1ccccc1-2 [2-AAF, 2-acetamidofluorene] | – | – | 0.0018 | 0.035 ± 0.009 | <10 units/min/nmol P450 | <10 units/min/nmol P450 | <10 units/min/nmol P450 | 20 ± 7.8 µM | – |
| Nc1ccc2c(c1)Cc1ccccc1-2 [2-AF, 2-aminofluorene] | > 20 µM | > 20 µM | – | – | – | – | – | 4.6 ± 1.3 µM | – |
| Cc1cc2ccccc2c2ccc3ccccc3c12 [5-methylchrysene] | > 20 µM | – | 0.0064 | 0.044 ± 0.008 | – | – | – | 6.9 ± 2.4 µM | – |
| Cc1cc2ccccc2c2ccc3c(c12)C=CC(O)C3O (stereo not drawn) [5MeCh-1,2-diol, 1,2-dihydroxy-1,2-dihydro-5-methylchrysene] | > 20 µM | – | – | – | 52 ± 11 units/min/nmol P450 | 2600 ± 180 units/min/nmol P450 | 86 ± 15 units/min/nmol P450 | > 20 µM | – |
| Cc1c2c(c(C)c3ccccc13)C(O)C(O)c1ccccc1-2 (stereo not drawn) [7,12-DMBA-5,6-diol, 5,6-dihydroxy-5,6-dihydro-7,12-dimethylbenz[a]anthracene] | – | – | 0.0012 | 0.044 ± 0.003 | – | – | – | 38 ± 3.7 µM | – |
| c1ccc2cc3c(ccc4ccccc43)cc2c1 [B[a]A, benz[a]anthracene] | – | – | – | – | – | – | – | – | Kd (P450 2A13; read-out: Ks, P450 2A13, Type I spectra, 1.0 µM P450, pH 7.4, ± SE): > 20 µM; Kd (P450 1B1 [2]; read-out: Ks, P450 1B1, Reverse Type I spectra, 1.0 µM P450, pH 7.4, ± SE): > 20 µM |
| c1ccc2c(c1)cc1ccc3cccc4ccc2c1c34 [B[a]P, benzo[a]pyrene] | > 20 µM | > 20 µM | – | – | – | – | – | > 20 µM | – |
| OC1c2cccc3ccc4c5ccccc5cc(c4c23)C1O (stereo not drawn) [B[a]P-4,5-diol, 4,5-dihydroxy-4,5-dihydrobenzo[a]pyrene] | – | – | – | – | – | – | – | 23 ± 10 µM | – |
| c1ccc2c(c1)ccc1ccc3ccccc3c12 [B[c]Phe, benzo[c]phenanthrene] | 1.1 ± 0.44 µM | > 20 µM | 0.016 | 0.039 ± 0.001 | 22 ± 8 units/min/nmol P450 | 25 ± 10 units/min/nmol P450 | 55 ± 11 units/min/nmol P450 | 2.5 ± 0.31 µM | ΔAmax/ Ks (P450 2A13; P450 2A13, Type I spectra): 0.045; ΔAmax (P450 2A13; [5]): 0.049 ± 0.005 |
| OC1C=Cc2c(ccc3ccc4ccccc4c23)C1O (stereo not drawn) [B[c]Phe-3,4-diol, 3,4-dihydroxy-3,4-dihydrobenzo[c]phenanthrene] | > 20 µM | – | – | – | 33 ± 10 units/min/nmol P450 | 140 ± 21 units/min/nmol P450 | 45 ± 8 units/min/nmol P450 | > 20 µM | – |
| OC1C=Cc2c(ccc3c4ccccc4c4ccccc4c23)C1O (stereo not drawn) [B[g]C-11,12-diol, 11,12-dihydroxy-11,12-dihydrobenzo[g]chrysene] | – | – | – | – | <10 units/min/nmol P450 | 207 ± 25 units/min/nmol P450 | <10 units/min/nmol P450 | – | – |
| OC1C=C2c3ccccc3-c3cccc(c32)C1O (stereo not drawn) [FA-2,3-diol, 2,3-dihydroxy-2,3-dihydrofluoranthene] | 0.86 ± 0.16 µM | – | 0.0058 | 0.043 ± 0.003 | 36 ± 8 units/min/nmol P450 | 30 ± 11 units/min/nmol P450 | 88 ± 13 units/min/nmol P450 | 7.4 ± 1.3 µM | ΔAmax/ Ks (P450 2A13; P450 2A13, Type I spectra): 0.060; ΔAmax (P450 2A13; [5]): 0.052 ± 0.003 |
| Cn1c(N)nc2c3cccnc3ccc21 [IQ, 2-amino-3-methylimiidazo[4,5-f]quinoline] | – | – | – | – | 75 ± 11 units/min/nmol P450 | 220 ± 29 units/min/nmol P450 | 430 ± 40 units/min/nmol P450 | – | – |
| Cn1c(N)nc2ncc(-c3ccccc3)cc21 [PhIP, 2-amino-1-methyl-6-phenylimidazo[4,5-b]pyridine] | – | – | – | – | <10 units/min/nmol P450 | <10 units/min/nmol P450 | <10 units/min/nmol P450 | > 20 µM | – |
| c1cc2c3c(cccc3c1)CC2 [acenaphthene] | 0.48 ± 0.1 µM | 1.2 ± 0.21 µM | – | – | <10 units/min/nmol P450 | <10 units/min/nmol P450 | <10 units/min/nmol P450 | > 20 µM | ΔAmax/ Ks (P450 2A13; P450 2A13, Type I spectra): 0.15; ΔAmax (P450 2A13; [5]): 0.074 ± 0.005; ΔAmax/ Ks (P450 2A6 [1]; P450 2A6, Type I spectra): 0.057; ΔAmax (P450 2A6 [1]; P450 2A6, Type I spectra, ± SE): 0.068 ± 0.002; spectral interaction with P450 2A6 (Type I binding spectra) (P450 2A6 [1]; result in words): interacted |
| OC1C=Cc2c(ccc3c2ccc2ccccc23)C1O (stereo not drawn) [chrysene-1,2-diol, 1,2-dihydroxy-1,2-dihydrochrysene] | > 20 µM | – | – | – | <10 units/min/nmol P450 | 220 ± 19 units/min/nmol P450 | <10 units/min/nmol P450 | > 20 µM | – |
| c1ccc2c(c1)ccc1c3ccccc3ccc21 [chrysene] | > 20 µM | – | – | – | – | – | – | > 20 µM | – |
| aflatoxin B1 [AFB1] | – | – | – | – | – | – | – | – | Kd (P450 2A13; read-out: Ks, pH 7.4): > 20 µM; Kd (P450 2A6 [1]; read-out: Ks, pH 7.4): > 20 µM |
